# From ChEMBL document CHEMBL2385028, “Augmentation of GABAergic neurotransmission by novel N-(substituted)-2-[4-(substituted)benzylidene]hydrazinecarbothioamides-a potential anticonvulsant approach” (Eur J Med Chem, 2013)
# Calls of active or inactive are those of the source. The calls are words filed in the database; no cut-off is given here.
# Legend:
# [1] = Neuroprotective activity in hippocampal slices (unknown origin) assessed as protection against kainic acid-induced cell death by propidium-iodide staining-based fluorescence assay; format: functional, tissue-based; details: Hippocampus
# [2] = Neuroprotective activity in hippocampal slices (unknown origin) assessed as protection against NMDA-induced cell death by propidium-iodide staining-based fluorescence assay; format: functional, tissue-based; details: Hippocampus
# Rattus norvegicus [3] = assay: Anticonvulsant activity in albino Sprague-Dawley rat assessed as protection against pilocarpine-induced status epilepticus at 600 mg/kg, ip administered prior to pilocarpine-challenge; format: functional, organism-based; design: dose 600 mg/kg
# Rattus norvegicus [4] = assay: Neurotoxicity in albino Sprague-Dawley rat assessed as motor impairment up to 600 mg/kg, ip measured for 4 hrs; format: toxicity, organism-based; design: dose 600 mg/kg, route intraperitoneal; details: in vivo
# Mus musculus [5] = assay: Anticonvulsant activity in albino CF-1 mouse assessed as protection against 6 Hz psychomotor seizure at 100 mg/kg, ip after 1 hr by minimal clonic seizure test relative to control; format: functional; details: route intraperitoneal
# Mus musculus [6] = assay: Anticonvulsant activity in albino CF-1 mouse assessed as protection against 6 Hz psychomotor seizure at 100 mg/kg, ip after 0.5 hrs by minimal clonic seizure test relative to control; format: functional; details: route intraperitoneal
# physchem = details: octanol/phosphate buffer
# Description: Octanol-phosphate buffer partition coefficient, log P of the compound after 24 hrs by UV spectroscopic analysis
# Rattus norvegicus [7] = assay: Effect on GABA levels in Wistar rat olfactory lobe at 30 mg/kg, ip after 2 hrs measured per 100 mg tissue; format: functional; details: route intraperitoneal
# Rattus norvegicus [8] = assay: Effect on GABA levels in Wistar rat midbrain at 30 mg/kg, ip after 2 hrs measured per 100 mg tissue; format: functional; details: route intraperitoneal
# Mus musculus [9] = assay: Anticonvulsant activity in albino CF-1 mouse assessed as protection against 6 Hz psychomotor seizure at 100 mg/kg, ip after 2 hrs by minimal clonic seizure test relative to control; format: functional; details: route intraperitoneal
# Mus musculus [10] = assay: Anticonvulsant activity in albino CF-1 mouse assessed as protection against subcutaneous metrazole-induced seizures in half or more animals at 300 mg/kg, ip after 4 hrs; format: functional, organism-based; design: dose 300 mg/kg
# Mus musculus [11] = assay: Anticonvulsant activity in albino CF-1 mouse assessed as protection against subcutaneous metrazole-induced seizures in half or more animals at 300 mg/kg, ip after 0.5 hrs; format: functional, organism-based; design: dose 300 mg/kg
# Mus musculus [12] = assay: Anticonvulsant activity in albino CF-1 mouse at 300 mg/kg, ip assessed as protection against maximal electroshock-induced seizures in half or more animals after 2 hrs; format: functional, organism-based; design: dose 300 mg/kg
# Mus musculus [13] = assay: Anticonvulsant activity in albino CF-1 mouse at 300 mg/kg, ip assessed as protection against maximal electroshock-induced seizures in half or more animals after 0.5 hrs; format: functional, organism-based; design: dose 300 mg/kg
# Mus musculus [14] = assay: Anticonvulsant activity in ip dosed albino CF-1 mouse assessed as protection against maximal electroshock-induced seizures in half or more animals after 4 hrs; format: functional; details: albino CF-1, ip, read-out: MED
# Mus musculus [15] = assay: Anticonvulsant activity in albino CF-1 mouse at 300 mg/kg, ip assessed as protection against maximal electroshock-induced seizures in half or more animals after 4 hrs relative to control; format: functional; details: route intraperitoneal
# Mus musculus [16] = assay: Anticonvulsant activity in ip dosed albino CF-1 mouse assessed as protection against 6 Hz psychomotor seizure after 4 hrs by minimal clonic seizure test; format: functional; details: albino CF-1, ip
# Rattus norvegicus [17] = assay: Effect on GABA levels in Wistar rat medulla oblongata at 30 mg/kg, ip after 2 hrs measured per 100 mg tissue; format: functional; details: route intraperitoneal
# Rattus norvegicus [18] = assay: Effect on GABA levels in Wistar rat cerebellum at 30 mg/kg, ip after 2 hrs measured per 100 mg tissue; format: functional; details: route intraperitoneal
# Mus musculus [19] = assay: Anticonvulsant activity in albino CF-1 mouse assessed as protection against 6 Hz psychomotor seizure at 100 mg/kg, ip after […] by minimal clonic seizure test relative to control
# Description: Anticonvulsant activity in albino CF-1 mouse assessed as protection against 6 Hz psychomotor seizure at 100 mg/kg, ip after 0.25 hrs by minimal clonic seizure test relative to control
# Mus musculus [20] = assay: Anticonvulsant activity in ip dosed albino CF-1 mouse assessed as protection against subcutaneous metrazole-induced seizures in half or more animals after 0.5 hrs; format: functional; details: albino CF-1, 0.5 h, read-out: MED
# Mus musculus [21] = assay: Anticonvulsant activity in albino CF-1 mouse at 300 mg/kg, ip assessed as protection against maximal electroshock-induced seizures in half or more animals after 4 hrs; format: functional, organism-based; design: dose 300 mg/kg
# [22] = Inhibition of voltage-dependent calcium channel subunit alpha-2/delta gabapentin binding site (unknown origin); design: species or system Homo sapiens
# Mus musculus [23] = assay: Anticonvulsant activity in ip dosed albino CF-1 mouse assessed as protection against maximal electroshock-induced seizures in half or more animals after 0.5 hrs; format: functional; details: albino CF-1, ip, read-out: MED
# Mus musculus [24] = assay: Anticonvulsant activity in ip dosed albino CF-1 mouse assessed as protection against maximal electroshock-induced seizures in half or more animals after 2 hrs; format: functional; details: albino CF-1, ip, read-out: MED
# Mus musculus [25] = assay: Anticonvulsant activity in albino CF-1 mouse assessed as protection against 6 Hz psychomotor seizure at 100 mg/kg, ip after 4 hrs by minimal clonic seizure test; format: functional; details: route intraperitoneal
# Mus musculus [26] = assay: Anticonvulsant activity in albino CF-1 mouse at 100 mg/kg, ip assessed as protection against maximal electroshock-induced seizures in half or more animals after 4 hrs relative to control; format: functional; details: route intraperitoneal
smiles,measurement,setting,value
COc1ccc(NC(=S)N/N=C/c2ccc(Oc3ccccc3)cc2)cc1,Activity,[1],inactive
same,Activity,[2],inactive
same,Activity,Rattus norvegicus [3],inactive
same,Activity,Rattus norvegicus [4],Non-toxic
same,Activity,Mus musculus [5],75%
same,Activity,Mus musculus [6],50%
same,logP at 24 h,physchem,4.99
Cc1ccc(NC(=S)N/N=C/c2ccc(Oc3ccc4c(c3)OCO4)cc2)cc1,logP at 24 h,physchem,5.34
COc1ccc(NC(=S)N/N=C/c2ccc(Oc3ccc(Cl)cc3)cc2)cc1,logP at 24 h,physchem,5.68
Cc1ccc(NC(=S)N/N=C/c2ccc(Oc3ccc(Br)cc3)cc2)cc1,logP at 24 h,physchem,6.23
COc1ccc(NC(=S)N/N=C/c2ccc(Oc3ccc(C)cc3)cc2)cc1,Activity,Rattus norvegicus [7],15.84 mg
same,Activity,Rattus norvegicus [8],58.09 mg
same,Activity,[1],inactive
same,Activity,[2],inactive
same,Activity,Rattus norvegicus [3],inactive
same,Activity,Rattus norvegicus [4],Non-toxic
same,Activity,Mus musculus [5],100%
same,Activity,Mus musculus [9],50%
same,Activity,Mus musculus [10],inactive
same,Activity,Mus musculus [11],inactive
same,Activity,Mus musculus [12],inactive
same,Activity,Mus musculus [13],inactive
same,minimal effective dose,Mus musculus [14],300 mg/kg
same,Activity,Mus musculus [15],100%
same,ED50,Mus musculus [16],> 100 mg/kg
same,Activity,Rattus norvegicus [17],50.08 mg
same,Activity,Rattus norvegicus [18],27.02 mg
same,logP at 24 h,physchem,5.44
Cc1cc(Oc2ccc(/C=N/NC(=S)Nc3ccccc3)cc2)ccc1Cl,logP at 24 h,physchem,6.03
same,Activity,Mus musculus [19],inactive
CCCC(CCC)C(=O)[O-].[Na+] [VALPROATE SODIUM],minimal effective dose,Mus musculus [20],300 mg/kg
same,Activity,Mus musculus [10],inactive
same,Activity,Mus musculus [21],inactive
same,Activity,Mus musculus [12],inactive
same,Activity,Mus musculus [13],inactive
O=C(O)[C@H]1CNCC12CCCCC2,IC50,[22],120 nM
S=C(N/N=C/c1ccc(Oc2ccc(Cl)cc2)cc1)Nc1ccccc1,logP at 24 h,physchem,5.52
Fc1ccc(Oc2ccc(/C=N/NC(=S)Nc3ccccc3)cc2)cc1,logP at 24 h,physchem,5.09
same,Activity,Mus musculus [19],inactive
O=[N+]([O-])c1ccc(Oc2ccc(/C=N/NC(=S)NC3CCCCC3)cc2)cc1,logP at 24 h,physchem,5.51
COc1ccc(NC(=S)N/N=C/c2ccc(Oc3ccc(Br)cc3)cc2)cc1,logP at 24 h,physchem,5.84
S=C(N/N=C/c1ccc(Oc2ccccc2)cc1)Nc1ccccc1,logP at 24 h,physchem,4.9
O=[N+]([O-])c1ccc(Oc2ccc(/C=N/NC(=S)Nc3ccccc3)cc2)cc1,logP at 24 h,physchem,4.95
Cc1ccc(Oc2ccc(/C=N/NC(=S)NC3CCCCC3)cc2)cc1,logP at 24 h,physchem,6.17
Cc1ccc(NC(=S)N/N=C/c2ccc(Oc3ccc([N+](=O)[O-])cc3)cc2)cc1,logP at 24 h,physchem,5.23
Cc1ccc(NC(=S)N/N=C/c2ccc(Oc3ccc(C)cc3)cc2)cc1,logP at 24 h,physchem,5.84
COc1ccc(NC(=S)N/N=C/c2ccc(Oc3ccc4c(c3)OCO4)cc2)cc1,logP at 24 h,physchem,4.9
Fc1ccc(Oc2ccc(/C=N/NC(=S)NC3CCCCC3)cc2)cc1,Activity,Mus musculus [9],50%
same,logP at 24 h,physchem,5.82
same,Activity,Mus musculus [19],inactive
O=C1NC(=O)C(c2ccccc2)(c2ccccc2)N1 [PHENYTOIN],Activity,Mus musculus [10],inactive
same,Activity,Mus musculus [11],inactive
same,minimal effective dose,Mus musculus [14],30 mg/kg
same,minimal effective dose,Mus musculus [23],30 mg/kg
same,minimal effective dose,Mus musculus [24],30 mg/kg
Cc1ccc(NC(=S)N/N=C/c2ccc(Oc3ccc4ccccc4c3)cc2)cc1,logP at 24 h,physchem,6.56
Cc1ccc(NC(=S)N/N=C/c2ccc(Oc3ccc(Cl)cc3)cc2)cc1,logP at 24 h,physchem,6.71
Cc1ccc(Oc2ccc(/C=N/NC(=S)Nc3ccccc3)cc2)cc1,logP at 24 h,physchem,5.39
COc1ccc(NC(=S)N/N=C/c2ccc(Oc3ccc([N+](=O)[O-])cc3)cc2)cc1,logP at 24 h,physchem,4.9
COc1ccc(NC(=S)N/N=C/c2ccc(Oc3ccc(Cl)c(C)c3)cc2)cc1,logP at 24 h,physchem,6.03
same,Activity,Mus musculus [19],inactive
Cc1ccc(NC(=S)N/N=C/c2ccc(Oc3ccccc3)cc2)cc1,Activity,Mus musculus [6],50%
same,logP at 24 h,physchem,5.28
same,Activity,Mus musculus [19],inactive
S=C(N/N=C/c1ccc(Oc2ccccc2)cc1)NC1CCCCC1,logP at 24 h,physchem,5.7
COc1ccc(NC(=S)N/N=C/c2ccc(Oc3ccc(F)cc3)cc2)cc1,Activity,Mus musculus [25],25%
same,logP at 24 h,physchem,5.09
same,Activity,Mus musculus [19],inactive
S=C(N/N=C/c1ccc(Oc2ccc(Cl)cc2)cc1)NC1CCCCC1,Activity,Rattus norvegicus [7],14.81 mg
same,Activity,Rattus norvegicus [8],51.76 mg
same,Activity,[1],inactive
same,Activity,[2],inactive
same,Activity,Rattus norvegicus [3],inactive
same,Activity,Rattus norvegicus [4],Non-toxic
same,Activity,Mus musculus [5],75%
same,Activity,Mus musculus [6],75%
same,Activity,Mus musculus [10],inactive
same,Activity,Mus musculus [11],inactive
same,Activity,Mus musculus [12],inactive
same,Activity,Mus musculus [13],inactive
same,minimal effective dose,Mus musculus [14],100 mg/kg
same,Activity,Mus musculus [26],100%
same,ED50,Mus musculus [16],> 100 mg/kg
same,Activity,Rattus norvegicus [17],47.24 mg
same,Activity,Rattus norvegicus [18],24.43 mg
same,logP at 24 h,physchem,6.44
same,Activity,Mus musculus [19],inactive
S=C(N/N=C/c1ccc(Oc2ccc3ccccc3c2)cc1)NC1CCCCC1,logP at 24 h,physchem,6.79
S=C(N/N=C/c1ccc(Oc2ccc3ccccc3c2)cc1)Nc1ccccc1,logP at 24 h,physchem,6.07
S=C(N/N=C/c1ccc(Oc2ccc(Br)cc2)cc1)Nc1ccccc1,logP at 24 h,physchem,5.62
same,Activity,Mus musculus [19],inactive
Cc1ccc(NC(=S)N/N=C/c2ccc(Oc3ccc(F)cc3)cc2)cc1,logP at 24 h,physchem,5.48
Cc1cc(Oc2ccc(/C=N/NC(=S)NC3CCCCC3)cc2)ccc1Cl,Activity,Mus musculus [5],75%
same,logP at 24 h,physchem,6.76
same,Activity,Mus musculus [19],inactive
COc1ccc(NC(=S)N/N=C/c2ccc(Oc3ccc4ccccc4c3)cc2)cc1,logP at 24 h,physchem,6.11
S=C(N/N=C/c1ccc(Oc2ccc(Br)cc2)cc1)NC1CCCCC1,logP at 24 h,physchem,6.36
same,Activity,Mus musculus [19],inactive
S=C(N/N=C/c1ccc(Oc2ccc3c(c2)OCO3)cc1)NC1CCCCC1,logP at 24 h,physchem,5.56
S=C(N/N=C/c1ccc(Oc2ccc3c(c2)OCO3)cc1)Nc1ccccc1,logP at 24 h,physchem,4.8
